Data on 30 molecules can be found in EP4562003B1, “NOVEL 7-SUBSTITUTED INDOLE SULFONAMIDE DERIVATIVES” (F. Hoffmann-La Roche AG, priority 2022, dated 2024).

The structures appear in SMILES notation.

The target in the test is human GPR17 short isoform (Homo sapiens, UniProt Q13304). Kind of test: GPR17 cAMP assay (TR-FRET cAMP quantification, antagonist mode). Format: cell-based. As to conditions: CHO-K1 cells stably expressing human GPR17 short isoform; EC80 of agonist MDL29,951; forskolin 15µM; IBMX 0.5mM; 30 minutes at room temperature; read-out: hGPR17 cAMP IC50. An outline of the steps:
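CHO-K1 cells stably expressing untagged human GPR17 short isoform, 10'000 cells/well in HBSS/10mM HEPES/0.1% BSA pH 7.4. Compounds added with EC80 MDL29,951 plus 0.5mM IBMX, then 15µM forskolin; 30 min at room temperature. cAMP read by TR-FRET after 90 min lysis; normalized to reference antagonist maximal activity, sigmoidal fit.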

Sequence of human GPR17 short isoform (Q13304 29-367): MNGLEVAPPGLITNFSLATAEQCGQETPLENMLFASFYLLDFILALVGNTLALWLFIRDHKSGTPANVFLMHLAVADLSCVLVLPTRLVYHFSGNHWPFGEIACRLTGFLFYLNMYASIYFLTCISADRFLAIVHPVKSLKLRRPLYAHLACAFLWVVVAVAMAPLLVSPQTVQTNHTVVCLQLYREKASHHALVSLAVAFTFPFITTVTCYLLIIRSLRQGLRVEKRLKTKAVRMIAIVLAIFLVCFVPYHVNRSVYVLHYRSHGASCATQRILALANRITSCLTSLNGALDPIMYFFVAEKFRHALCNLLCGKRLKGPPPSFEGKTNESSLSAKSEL

For the molecule `COc1nc(NS(=O)(=O)c2c[nH]c3c(-c4cnc(C)cn4)c(Cl)ccc23)nc(OC)c1CC(F)F` [Example 82, 6-chloro-N-[5-(2,2-difluoroethyl)-4,6-dimethoxy-pyrimidin-2-yl]-7-(5-methylpyrazin-2-yl)-1H-indole-3-sulfonamide], the IC50 is 47 nM. Turning to `COc1nc(NS(=O)(=O)c2c[nH]c3c(-c4cnc(C)cn4)c(Cl)ccc23)nc(OC)c1OC(F)F` [Example 83, 6-chloro-N-[5-(difluoromethoxy)-4,6-dimethoxy-pyrimidin-2-yl]-7-(5-methylpyrazin-2-yl)-1H-indole-3-sulfonamide], the IC50 amounted to 97 nM.

Turning to `COc1nc(NS(=O)(=O)c2c[nH]c3c(-c4cnc(C)cn4)c(Cl)ccc23)nc(OC)c1OCC(F)F` [Example 84, 6-chloro-N-[5-(2,2-difluoroethoxy)-4,6-dimethoxy-pyrimidin-2-yl]-7-(5-methylpyrazin-2-yl)-1H-indole-3-sulfonamide], the IC50 turned out to be 52 nM. As for `COc1nc(NS(=O)(=O)c2c[nH]c3c(-c4ncccn4)c(Cl)ccc23)nc(OC)c1C` [Example 85, 6-chloro-N-(4,6-dimethoxy-5-methyl-pyrimidin-2-yl)-7-(2-pyrimidyl)-1H-indole-3-sulfonamide], the figure is 44 nM; as for `COc1nc(NS(=O)(=O)c2c[nH]c3c(-c4cncc(C)n4)c(Cl)ccc23)nc(OC)c1CC(F)F` [Example 86, 6-chloro-N-[5-(2,2-difluoroethyl)-4,6-dimethoxy-pyrimidin-2-yl]-7-(6-methylpyrazin-2-yl)-1H-indole-3-sulfonamide], 29 nM. Next, `COc1nc(NS(=O)(=O)c2c[nH]c3c(-c4cncc(C)n4)c(Cl)ccc23)nc(OC)c1OC(F)F` [Example 87, 6-chloro-N-[5-(difluoromethoxy)-4,6-dimethoxy-pyrimidin-2-yl]-7-(6-methylpyrazin-2-yl)-1H-indole-3-sulfonamide]: 31 nM; `COc1nc(NS(=O)(=O)c2c[nH]c3c(-c4cncc(C)n4)c(Cl)ccc23)nc(OC)c1OCC(F)F` [Example 88, 6-chloro-N-[5-(2,2-difluoroethoxy)-4,6-dimethoxy-pyrimidin-2-yl]-7-(6-methylpyrazin-2-yl)-1H-indole-3-sulfonamide]: 27 nM; `COc1nc(NS(=O)(=O)c2c[nH]c3c(-c4cncnc4)c(Cl)ccc23)nc(OC)c1OCC(F)F` [Example 89, 6-chloro-N-[5-(2,2-difluoroethoxy)-4,6-dimethoxy-pyrimidin-2-yl]-7-(5-pyrimidyl)-1H-indole-3-sulfonamide]: 42 nM. As for `COc1nc(NS(=O)(=O)c2c[nH]c3c(-c4cnc(Cl)cn4)c(Cl)ccc23)nc(OC)c1OCC(F)F` [Example 90, 6-chloro-7-(5-chloropyrazin-2-yl)-N-[5-(2,2-difluoroethoxy)-4,6-dimethoxy-pyrimidin-2-yl]-1H-indole-3-sulfonamide], the figure is 261 nM. For the molecule `COc1nc(NS(=O)(=O)c2c[nH]c3c(-c4cnc(Cl)cn4)c(Cl)ccc23)nc(OC)c1CC(F)F` [Example 91, 6-chloro-7-(5-chloropyrazin-2-yl)-N-[5-(2,2-difluoroethyl)-4,6-dimethoxy-pyrimidin-2-yl]-1H-indole-3-sulfonamide], the IC50 came to 225 nM. Next, `COc1nc(NS(=O)(=O)c2c[nH]c3c(-c4cccc(C)n4)c(Cl)ccc23)nc(OC)c1OCC(F)F` [Example 92, 6-chloro-N-[5-(2,2-difluoroethoxy)-4,6-dimethoxy-pyrimidin-2-yl]-7-(6-methyl-2-pyridyl)-1H-indole-3-sulfonamide]: 28 nM.

In the case of `COc1nc(NS(=O)(=O)c2c[nH]c3c(-c4cccc(C)n4)c(Cl)ccc23)nc(OC)c1CC(F)F` [Example 93, 6-chloro-N-[5-(2,2-difluoroethyl)-4,6-dimethoxy-pyrimidin-2-yl]-7-(6-methyl-2-pyridyl)-1H-indole-3-sulfonamide], the IC50 worked out at 24 nM. As for `COc1nc(NS(=O)(=O)c2c[nH]c3c(-c4cccc(C)n4)c(Cl)ccc23)nc(OC)c1OC(F)F` [Example 94, 6-chloro-N-[5-(difluoromethoxy)-4,6-dimethoxy-pyrimidin-2-yl]-7-(6-methyl-2-pyridyl)-1H-indole-3-sulfonamide], the figure is 20 nM; as for `COc1nc(NS(=O)(=O)c2c[nH]c3c(-c4ccnnc4)c(Cl)ccc23)nc(OC)c1OCC(F)F` [Example 95, 6-chloro-N-[5-(2,2-difluoroethoxy)-4,6-dimethoxy-pyrimidin-2-yl]-7-pyridazin-4-yl-1H-indole-3-sulfonamide], 46 nM; as for `COc1nc(NS(=O)(=O)c2c[nH]c3c(-c4cc(C)ncn4)c(Cl)ccc23)nc(OC)c1OCC(F)F` [Example 96, 6-chloro-N-[5-(2,2-difluoroethoxy)-4,6-dimethoxy-pyrimidin-2-yl]-7-(6-methylpyrimidin-4-yl)-1H-indole-3-sulfonamide], 32 nM.

For the molecule `COc1nc(NS(=O)(=O)c2c[nH]c3c(-c4nccnc4F)c(Cl)ccc23)nc(OC)c1CC(F)F` [Example 97, 6-chloro-N-[5-(2,2-difluoroethyl)-4,6-dimethoxy-pyrimidin-2-yl]-7-(3-fluoropyrazin-2-yl)-1H-indole-3-sulfonamide], the IC50 came out at 34 nM. Next, `COc1nc(NS(=O)(=O)c2c[nH]c3c(-c4nccnc4F)c(Cl)ccc23)nc(OC)c1OCC(F)F` [Example 98, 6-chloro-N-[5-(2,2-difluoroethoxy)-4,6-dimethoxy-pyrimidin-2-yl]-7-(3-fluoropyrazin-2-yl)-1H-indole-3-sulfonamide]: 35 nM; `COc1nc(NS(=O)(=O)c2c[nH]c3c(-c4nccnc4F)c(Cl)ccc23)nc(OC)c1OC(F)F` [Example 99, 6-chloro-N-[5-(difluoromethoxy)-4,6-dimethoxy-pyrimidin-2-yl]-7-(3-fluoropyrazin-2-yl)-1H-indole-3-sulfonamide]: 38 nM. Next, `COc1nc(NS(=O)(=O)c2c[nH]c3c(-c4ncccc4C)c(Cl)ccc23)nc(OC)c1OCC(F)F` [Example 100, 6-chloro-N-[5-(2,2-difluoroethoxy)-4,6-dimethoxy-pyrimidin-2-yl]-7-(3-methyl-2-pyridyl)-1H-indole-3-sulfonamide]: 40 nM.

On to `COc1nc(NS(=O)(=O)c2c[nH]c3c(-c4cn(C)nn4)c(Cl)ccc23)nc(OC)c1OCC(F)F` [Example 101, 6-chloro-N-[5-(2,2-difluoroethoxy)-4,6-dimethoxy-pyrimidin-2-yl]-7-(1-methyltriazol-4-yl)-1H-indole-3-sulfonamide], for which the IC50 worked out at 43 nM.

Regarding `COc1nc(NS(=O)(=O)c2c[nH]c3c(-c4ncccc4C)c(Cl)ccc23)nc(OC)c1CC(F)F` [Example 102, 6-chloro-N-[5-(2,2-difluoroethyl)-4,6-dimethoxy-pyrimidin-2-yl]-7-(3-methyl-2-pyridyl)-1H-indole-3-sulfonamide], the IC50 is 42 nM. `COc1nc(NS(=O)(=O)c2c[nH]c3c(-c4ncccc4C)c(Cl)ccc23)nc(OC)c1OC(F)F` [Example 103, 6-chloro-N-[5-(difluoromethoxy)-4,6-dimethoxy-pyrimidin-2-yl]-7-(3-methyl-2-pyridyl)-1H-indole-3-sulfonamide]: the IC50 is 54 nM. Next, `COc1nc(NS(=O)(=O)c2c[nH]c3c(-c4ncn(C)n4)c(Cl)ccc23)nc(OC)c1OCC(F)F` [Example 104, 6-chloro-N-[5-(2,2-difluoroethoxy)-4,6-dimethoxy-pyrimidin-2-yl]-7-(1-methyl-1,2,4-triazol-3-yl)-1H-indole-3-sulfonamide]: 113 nM; `COc1nc(NS(=O)(=O)c2c[nH]c3c(-c4ncc(F)cn4)c(Cl)ccc23)nc(OC)c1OCC(F)F` [Example 105, 6-chloro-N-[5-(2,2-difluoroethoxy)-4,6-dimethoxy-pyrimidin-2-yl]-7-(5-fluoropyrimidin-2-yl)-1H-indole-3-sulfonamide]: 221 nM.

`COc1nc(NS(=O)(=O)c2c[nH]c3c(-c4cnn(C)n4)c(Cl)ccc23)nc(OC)c1OCC(F)F` [Example 106, 6-chloro-N-[5-(2,2-difluoroethoxy)-4,6-dimethoxy-pyrimidin-2-yl]-7-(2-methyltriazol-4-yl)-1H-indole-3-sulfonamide]: the IC50 came to 34 nM. As for `COc1nc(NS(=O)(=O)c2c[nH]c3c(-c4cnn(C)n4)c(Cl)ccc23)nc(OC)c1OC(F)F` [Example 107, 6-chloro-N-[5-(difluoromethoxy)-4,6-dimethoxy-pyrimidin-2-yl]-7-(2-methyltriazol-4-yl)-1H-indole-3-sulfonamide], the figure is 76 nM.

Consider `COc1nc(NS(=O)(=O)c2c[nH]c3c(-c4cnn(C)n4)c(Cl)ccc23)nc(OC)c1CC(F)F` [Example 108, 6-chloro-N-[5-(2,2-difluoroethyl)-4,6-dimethoxy-pyrimidin-2-yl]-7-(2-methyltriazol-4-yl)-1H-indole-3-sulfonamide], for which the IC50 turned out to be 32 nM.

`COc1nc(NS(=O)(=O)c2c[nH]c3c(-c4cnn(C)n4)c(Cl)ccc23)nc(OC)c1OCCF` [Example 109, 6-chloro-N-[5-(2-fluoroethoxy)-4,6-dimethoxy-pyrimidin-2-yl]-7-(2-methyltriazol-4-yl)-1H-indole-3-sulfonamide]: the IC50 was 36 nM. As for `COc1nc(NS(=O)(=O)c2c[nH]c3c(-c4nnco4)c(Cl)ccc23)nc(OC)c1OCC(F)F` [Example 110, 6-chloro-N-[5-(2,2-difluoroethoxy)-4,6-dimethoxy-pyrimidin-2-yl]-7-(1,3,4-oxadiazol-2-yl)-1H-indole-3-sulfonamide], the IC50 was 46 nM. Regarding `COc1nc(NS(=O)(=O)c2c[nH]c3c(-c4cnn(C)c4)c(Cl)ccc23)nc(OC)c1OCC(F)F` [Example 111, 6-chloro-N-[5-(2,2-difluoroethoxy)-4,6-dimethoxy-pyrimidin-2-yl]-7-(1-methylpyrazol-4-yl)-1H-indole-3-sulfonamide], the IC50 came to 53 nM.

In general, IC50 refers to the point on the concentration scale where inhibition reaches its midpoint.
